Measured values as given in US20220305037A1, “Treatment of Cancer” (Sumitomo Dainippon Pharma Oncology, Inc., priority 2019, published 2022).

What was measured:
MDS blasts = test: MCL-1 dependency assay of MDS blasts after azacitidine pre-treatment; format: cell-based, human; details: patient sample MDS1060; MCL-1 dependency cut-off of 40%
Procedure: CD13, CD33, CD34, CD45, CD3 and CD20 were used as markers to identify MDS blasts, and to perform MCL-1 dependency analyses. MDS blasts were positive for CD13, CD33 and CD34, dim for CD45 and negative for CD3 and CD20.
On day 1 of the MCL-1 dependency assay, 5×10^4-1×10^5 HS-5 feeder cells were plated into a 6-well plate, and allowed to attached overnight. HS-5 feeder cells improve viability of frozen MDS bone marrow mononuclear cells (BMMCs) after thawing. On day 2 of the assay, MDS BMMCs were thawed, and divided into three treatment groups corresponding to treatment with DMSO, treatment with 1 μM azacitidine or treatment with 2.5 μM azacitidine. On day 4, after a 48-hour treatment period, MCL-1 dependency of MDS blasts, lymphocytes and monocytes were separately assessed.

[1] = tested on: MCL-1 protein levels in blasts; details: cited from earlier work
[2] = tested on: patients with newly diagnosed, previously untreated AML; test: Phase 1 dose-escalation study of alvocidib followed by cytarabine/daunorubicin (7+3): response assessment by ELN Guidelines; format: in vivo, human
Procedure: Methods: Study Population. This was a Phase 1, open-label, multicenter, dose-escalation study of alvocidib followed by cytarabine/daunorubicin (7+3) in patients with AML (NCT03298984). Patients aged 18-65 years with newly diagnosed, previously untreated AML and pathological confirmation of bone marrow (BM) blasts ≥20% were eligible. Key inclusion criteria included: Eastern Cooperative Oncology Group (ECOG) performance status (PS) ≤2, serum creatinine level ≤1.8 mg/dL, alanine aminotransferase (ALT) and aspartate aminotransferase (AST) ≤5 times upper limit of normal (ULN), total bilirubin ≤2.0 mg/dL, and left ventricular ejection fraction (EF) >45%. Patients were excluded if they had previous treatment for AML (with the exception of hydroxyurea), and were diagnosed with acute promyelocytic leukemia (APL-M3) or core-binding factor AML ((CBF-AML: t(8;21); inv(16); t(16;16)). All patients provided written informed consent. This study was conducted as per the Declaration of Helsinki after approval by ethics committee of each participating center.
Treatment Plan: Induction.
Consolidation. Patients who achieved a complete remission (CR) received 2 to 4 cycles of consolidation therapy with high dose cytarabine (HiDAC) 3 gm/m^2 IV every 12 hours on days 1, 3 and 5 upon full hematological recovery (absolute neutrophil count >1×10^−3/L and platelets >1×10^1/L). HiDAC was permitted to be dose reduced to 1.5 gm/m^2 IV every 12 hours on days 1, 3 and 5 in those >60 years. Allogeneic stem cell transplantation was permitted after induction per standard of care but was recommended after at least 1 cycle of HiDAC consolidation in those who achieved CR.
Response Assessments. Response assessment was performed by a bone marrow aspirate and biopsy at the time of full hematologic recovery or by day 50 and day 60 of 1 versus 2 induction cycles, respectively. Response to therapy was assessed by standardized ELN Guidelines. In those who achieved CR and received consolidation therapy, a bone marrow aspirate and biopsy was performed after cycle 2 of HiDAC, after completion of consolidation therapy, and at any suspicion of relapse.
(§1) Statistical Analysis. […] Intra-patient dose escalation was not permitted. […] Database lock was on Apr. 30, 2020.

[3] = tested on: patients with newly diagnosed, previously untreated AML; test: Minimal residual disease (MRD) analysis of bone marrow by flow cytometry in the Phase 1 study; format: in vivo, human
Procedure: Minimal Residual Disease (MRD) Analysis. MRD was assessed in bone marrow samples at the time of response by a uniform central assay (Hematologics, Inc.) in an exploratory cohort, as has been previously described. Samples were first incubated with antibodies for 20 minutes at room temperature. Red blood cells were then lysed at 37° C. using buffered NH4Cl for 5 minutes, followed by centrifugation at 300 g. Cells were subsequently washed with PBS supplemented with 2% FCS and resuspended in 1% paraformaldehyde. Samples were analyzed on a FACSCalibur™ flow cytometer (Becton Dickinson Biosciences). 200,000 events were analyzed for each sample. Data analysis was performed with WinList™ software (Verity Software House). Two independent reviewers viewed each sample to arrive at a consensus on the data.

[4] = tested on: patients with newly diagnosed, previously untreated AML; test: Kaplan-Meier time-to-event analyses and clinical outcomes (OS, EFS, RFS, relapse) in the Phase 1 study; format: in vivo, human
Text: as §1

[5] = tested on: patients with newly diagnosed, previously untreated AML
Procedure: Treatment Plan: Induction. Alvocidib was dose-escalated starting at dose level 1: 20 mg/m^2 30-minute IV bolus followed by 30 mg/m^2 IV infusion over 4 hours on Days 1-3 (FIG. 1). Daunorubicin 60 mg/m^2 IV bolus over 15 minutes was initiated on days 5-7, and cytarabine 100 mg/m^2/day IV continuous 24-hour infusion was administered on Days 5-11. A bone marrow aspirate and biopsy was performed on day 14 (+/−3 days) and patients with residual leukemia (>5% bone marrow blasts and >10% cellularity) were recommended to receive a second induction cycle with alvocidib on days 1-3 (same dose level as induction) followed by daunorubicin 45 mg/m^2/day IV over 15 minutes on days 5 and 6 and cytarabine 100 mg/m^2/day IV continuous infusion over days 5-9 (“5+2”).
Statistical Analysis. Alvocidib dose was escalated using a 3+3 design (FIG. 1). Successive cohorts of patients (3-6 per cohort) were treated with escalated doses until the maximal tolerated dose (MTD) was established. Intra-patient dose escalation was not permitted. Descriptive analysis was performed for the safety and efficacy endpoints. MTD for alvocidib was estimated by the highest alvocidib dose for which the incidence of DLT during Cycle 1 was less than 33% in combination with 7+3. Kaplan-Meier time-to-event analyses were performed on overall survival (OS), relapse-free survival and duration of remission. […]

For `Nc1ncn([C@@H]2O[C@H](CO)[C@@H](O)[C@H]2O)c(=O)n1` [azacitidine], the “change of MCL-1 dependency status of blasts” value (MDS blasts) is listed as “rendered MCL-1-independent blasts MCL-1 dependent” and the “effect on MCL-1 protein levels in blasts” value [1] is listed as “reduce MCL-1 protein levels in blasts”.
For `CN1CC[C@H](c2c(O)cc(O)c3c(=O)cc(-c4ccccc4Cl)oc23)[C@H](O)C1` [alvocidib, 2-(2-chlorophenyl)-5,7-dihydroxy-8-[(3S,4R)-3-hydroxy-1-methylpiperidin-4-yl]chromen-4-one], the “differences in response to alvocidib in patients with or without MCL-1 dependence” value ([2]; MCL-1 dependence threshold priming >30%, exploratory analysis) was “No significant differences”, the “patients who received re-induction for residual leukemia on day 14” value ([2]; all enrolled, 3 patients, re-induction with alvocidib and 5+2) was 9% and the CR rate ([2]; genomic class AML with NPM1 mutation (8/10)) was 80%. For the same compound, the “CR among patients who received re-induction therapy” value ([2]; re-induction with alvocidib and 5+2) was “None”, the “MRD-negative among CR patients with ELN adverse-risk disease” value ([3]; 4/9, flow cytometry and/or institutional standard assessment) was 44% and the “MRD-negative CR in ELN adverse-risk patients” value ([3]; exploratory cohort, 3 out of 4) was 75%. The “patients who achieved CR without MRD and remain in CR” value ([4]; 9 patients) was 82%, the “median OS” value ([4]; 32 patients, median follow-up 9.2 months) was “not reached” and the “duration of CR, range” value ([4]; CR patients relapsed to date) was 1.4-13.6 months. The “CR patients relapsed to date” value ([4]; of the 22 CR patients, 7 patients) was 32%, the “median RFS” value ([4]; time from CR/CRi up to disease relapse or death) was “not reached” and the “patients who achieved CR without evidence of MRD and relapsed” value ([4]; two patients) was 18%. The “MTD (alvocidib dose)” value ([5]; IV bolus/IV infusion on Days 1-3, in combination with 7+3) was “(30/60 mg/m^2)” and the “safety and feasibility of alvocidib administration prior to 7+3 induction” value ([5]; in vivo) was “safe, feasible”.
